The target in series [1] is c-Jun N-terminal kinase, JNK (Homo sapiens, UniProt P45983+P53779+P45984). Kind of series: Inhibition of JNK-mediated c-Jun activation in TNFalpha-induced human SW1353 cells preincubated for 30 mins prior to TNFalpha treatment measured after 20 mins. The series is classed as cell-based.
Series [2] has as its target Mitogen-activated protein kinase 8 (Homo sapiens, UniProt P45983). Kind of series: Inhibition of human JNK1alpha1 using GST-tagged ATF2 as substrate preincubated for 10 mins prior to substrate addition measured after 30 mins by microplate scintillation counting analysis.
For series [3], the system named is Caco-2. Kind of series: Efflux ratio of permeability from […] side in human Caco2 cells. The class given is ADME, cell-based. Background: Caco-2 cells form a polarised layer with tight junctions and transporters.
Series [4] is described as follows: Solubility of the compound in phosphate buffer at pH 6.4. The series is classed as physicochemical.
Series [5] can be described thus: Permeability from apical to basolateral side in human Caco2 cells. The class given is ADME, cell-based. Conditions: Caco-2.
Series [6] can be described thus: Half life in dog at 2 mg/kg, po. The class given is ADME, organism-based, Canis lupus familiaris. Set-up: dose 2 mg/kg, route oral. The following applies: in vivo.
A short description of series [7]: Oral bioavailability in dog at 2 mg/kg. The class given is ADME, organism-based, Canis lupus familiaris. The following applies: in vivo.
A short description of series [8]: Oral bioavailability in rat at 2 mg/kg. The series is classed as ADME, organism-based. The following applies: in vivo.
Series [9] in a line: Clearance in dog at 0.5 mg/kg, iv. The class given is ADME, organism-based, Canis lupus familiaris. Set-up: dose 0.5 mg/kg, route intravenous. Conditions: in vivo.
The nature of series [10]: Half life in dog at 0.5 mg/kg, iv. The class given is ADME, organism-based, Canis lupus familiaris. Also on record: dose 0.5 mg/kg, route intravenous. Conditions: in vivo.
Series [11] can be described thus: Half life in rat at 0.5 mg/kg, iv. The series is classed as ADME, organism-based. Also on record: dose 0.5 mg/kg, route intravenous. Conditions: in vivo.
Series [12] can be described thus: Half life in rat at 2 mg/kg, po. Also on record: dose 2 mg/kg, route oral. The series is classed as ADME, organism-based. The following applies: in vivo.
The nature of series [13]: Clearance in rat at 0.5 mg/kg, iv. The series is classed as ADME, organism-based. Set-up: dose 0.5 mg/kg, route intravenous. Conditions: in vivo.
Series [14] concerns the target Mitogen-activated protein kinase 9 (Homo sapiens, UniProt P45984). Briefly: Inhibition of human JNK2alpha2 using GST-tagged ATF2 as substrate preincubated for 10 mins prior to substrate addition measured after 30 mins by microplate scintillation counting analysis.

In brackets after ≈: the same amount, converted by molar mass.

Chain of Mitogen-activated protein kinase 8 (P45983 whole entry): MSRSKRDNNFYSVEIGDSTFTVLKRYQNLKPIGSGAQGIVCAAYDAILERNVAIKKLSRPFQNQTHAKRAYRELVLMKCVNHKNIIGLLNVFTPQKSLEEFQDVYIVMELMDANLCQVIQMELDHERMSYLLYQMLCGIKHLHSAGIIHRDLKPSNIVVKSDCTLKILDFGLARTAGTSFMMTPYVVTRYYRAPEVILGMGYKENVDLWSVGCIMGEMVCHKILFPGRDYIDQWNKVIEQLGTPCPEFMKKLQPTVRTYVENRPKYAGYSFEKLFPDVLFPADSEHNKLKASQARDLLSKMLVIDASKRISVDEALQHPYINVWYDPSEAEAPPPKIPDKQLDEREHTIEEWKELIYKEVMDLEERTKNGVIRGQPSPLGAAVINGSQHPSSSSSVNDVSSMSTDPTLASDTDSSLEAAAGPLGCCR
Chain of Mitogen-activated protein kinase 9 (P45984 whole entry): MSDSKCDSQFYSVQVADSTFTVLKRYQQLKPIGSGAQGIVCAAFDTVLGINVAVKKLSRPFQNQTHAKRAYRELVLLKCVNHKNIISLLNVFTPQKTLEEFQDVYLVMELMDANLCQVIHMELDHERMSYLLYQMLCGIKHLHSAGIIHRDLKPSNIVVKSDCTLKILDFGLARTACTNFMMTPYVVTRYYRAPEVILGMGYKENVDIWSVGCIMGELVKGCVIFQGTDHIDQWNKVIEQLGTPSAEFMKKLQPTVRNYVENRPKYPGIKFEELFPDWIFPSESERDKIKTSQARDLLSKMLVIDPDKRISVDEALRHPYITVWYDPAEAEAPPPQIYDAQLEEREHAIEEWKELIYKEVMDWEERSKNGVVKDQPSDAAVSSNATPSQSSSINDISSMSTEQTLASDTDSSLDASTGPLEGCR

In general, IC50 refers to the midpoint of a concentration-inhibition curve. `CS(=O)(=O)N[C@H]1CC[C@H](Nc2nccc(-n3ccc4c(N5CCC(S(C)(=O)=O)CC5)cccc43)n2)CC1`: in series [1], the IC50 stood at 710 nM.
As to `CS(=O)(=O)N[C@H]1CC[C@H](Nc2nccc(-n3ccc4c(N5CCN(C(=O)CC#N)CC5)cccc43)n2)CC1`, the results for the IC50 in series [1] and in [2] were 200 nM and 5 nM, respectively.
A word on the solubility: it is the dissolved amount per volume that the medium holds. A lower solubility goes with little dissolved substance. One may read the Papp A→B as how fast a substance crosses the layer from the apical side. A high value points to fast passage. Take `CS(=O)(=O)C1CCN(c2cccc3c2cnn3-c2ccnc(N[C@H]3CC[C@H](O)CC3)n2)CC1`: in series [3], the Ratio is 5. Moreover, the half-maximal inhibitory concentration (IC50) turned out to be 290 nM in [1] and 6 nM in [2]. For the same molecule, in series [4], the solubility stood at 3.5 µg/mL (≈ 7.44 µM). For the same molecule, the Papp A→B in series [5] turned out to be 3.8 ×10⁻⁶ cm/s.
For orientation: half-life means how long it takes for the measured level to halve. Lower therefore signals rapid decline. The bioavailability is the share of a dose that reaches the circulation, judged against a reference dose that is usually intravenous. Higher therefore signals much systemic uptake. The term clearance denotes the volume of plasma or blood freed of the substance per unit of time. Take `CS(=O)(=O)C1CCN(c2cccc3c2ccn3-c2ccnc(N[C@H]3CC[C@H](O)CC3)n2)CC1`: the half-life in [6] was 3.4 h; in [10] it was 4.5 h; in series [11], 0.7 h; in series [12], 2 h. In addition, the bioavailability in series [7] is 15%; in series [8], 100%. Besides, the values for the clearance in series [9] and in series [13] were 10.6 mL/min/kg and 47 mL/min/kg, respectively. In series [14], this molecule yielded an IC50 of 20 nM. For the same molecule, in [4], the solubility is 5.2 µg/mL (≈ 11.1 µM). Besides, in series [5], the Papp A→B came out at 10.5 ×10⁻⁶ cm/s.
Consider `CC(=O)N[C@H]1CC[C@H](Nc2nccc(-n3ccc4c(N5CCC(S(C)(=O)=O)CC5)cccc43)n2)CC1`, for which the IC50 in series [1] is 700 nM; in [2], 7 nM.
For the molecule `CS(=O)(=O)C1CCN(c2cccc3c2ccn3-c2ccnc(N[C@H]3CC[C@H](C(=O)N4CCC(O)CC4)CC3)n2)CC1`, in series [5], the Papp A→B was 0.4 ×10⁻⁶ cm/s.
As for `CS(=O)(=O)C1CCN(c2cccc3c2ccn3-c2ccnc(N[C@H]3CC[C@H](C(=O)N4CCn5cnnc5C4)CC3)n2)CC1`, in [5], the Papp A→B turned out to be 0.1 ×10⁻⁶ cm/s.
